Source: ChEMBL document CHEMBL5108021, “Discovery of 3-pyrazolyl-substituted pyrazolo[1,5-a]pyrimidine derivatives as potent TRK inhibitors to overcome clinically acquired resistance” (Eur J Med Chem, 2022)

Columns and labels:
[1] = tested on: BaF3; experiment: Antitumor activity against mouse BaF3 cells expressing […]-wild type TRKA xenografted in BALB/c mouse assessed as inhibition of tumor growth at 30 mg/kg, po bid for 11 to 14 days by microcaliper analysis; assay type: functional; conditions: time 11-14 day, read-out: TGI
[2] = tested on: BaF3; experiment: animal or person; conditions: Mus musculus, BaF3, po, read-out: TGI

Compound	inhibition in vivo at 30 mg/kg [1]	inhibition in vivo at 100 mg/kg [2]
O=C(Nc1cnn2ccc(N3CCC[C@@H]3c3cc(F)ccc3F)nc12)N1CC[C@H](O)C1 [LAROTRECTINIB]	74%	–
C[C@@H]1CCc2ncc(F)cc2[C@H]2CCCN2c2ccn3ncc(c3n2)C(=O)N1 [SELITRECTINIB]	–	64%
